Tests used:
Phase 1 clinical trial = format: in vivo
D473H SMO mutant = target: T1, D473H SMO mutant (Homo sapiens, UniProt Q99835, D473H); experiment: Gli-luciferase reporter assay, C3H10T1/2 cells transfected with D473H SMO; format: cell-based, mouse
T1 construct: expressed in transfected cells; host or cells: C3H10T1/2 cells (ATCC CCL-226), mouse
Method: Wild type human SMO was subcloned into pcDNA3.1 from an expression construct in pCMV6 (Origene #SC122724). D473H SMO was then generated by site-directed mutagenesis using the Stratagene QuikChange kit (Agilent #200519) and sequence verified.
Gli-Luciferase reporter assays were performed as described. (Yauch et al. (2009) Science 326: 572-574) Briefly, C3H10 T1/2 cells (ATCC, #CCL-226) were plated in six-well plates at 1×10 to 5th cells per well in BME (Gibco #21010) with 10% FBS (Hyclone #SH30070.03), 2 mM Glutamine (Gibco #25030) and 50 units penicillin/50 ug streptomycin (Gibco #15140). The next morning, cells were transfected with 400 ng SMO expression construct, 400 ng 8× Gli-Luc, and 200 ng pRL-TK per well with GeneJuice transfection reagent (Novagen #70967). Cells in each well were lifted six hours later and replated into four wells of a 12 well plate and allowed to attach overnight. Medium was then changed to low (0.5%) serum and compounds were added in quadruplicate in a range of concentrations. After a 48 hour incubation, firefly and renilla luciferase were assayed using the Promega Dual-Glo Luciferase Assay System (Promega #E2940) and ratios were used to determine percent of control using Prism graphing software.

[1] = test system: Ptc^C/C medulloblastoma flank allografts; experiment: Ptc^C/C medulloblastoma flank allografts (tumor take and response); format: in vivo, mouse
Method: Animal experiments were performed in accordance with the NIH Guide for the Care and Use of Experimental Animals with approval from the Institutional Animal Care and Use Committee. Freshly excised medulloblastoma tumors from symptomatic Ptc^C/C mice were placed in cooled phosphate buffered saline (PBS), minced with a scalpel, and filtered through a 100 μm cell strainer (BD Bioscience, San Jose, Calif.). The cells were pelleted at 1000 rpm for 5 minutes at 4° C., and resuspended in equal parts DMEM and Matrigel (BD Biosciences, San Diego, Calif.). Recipient mice (wild type littermates) were anesthetized with isoflurane and a suspension of 1×10^6 cells in total volume of 200 μL was injected subcutaneously into the flank using a 30G needle. Tumor growth was measured in two dimensions using digital calipers every 24-48 hours, and the tumor volumes were calculated according to the following formula: 0.5×length×width^2, with width being the smaller of the two dimensions measured. Tumors greater than 2.5 cm in length were harvested and either snap-frozen or fixed in 10% formalin.
To confirm this, aliquots of 1 million cells from the cerebellar tumors of 9 donor Ptc^C/C mice were transplanted to the flanks of 110 recipients.
Recipient mice bearing drug-naïve and IPI-926 treated allograft tumors were then treated with daily IPI-926 (20 mg/kg) and tumor growth was monitored via caliper measurements. […] When tumor volumes reached […], recipient mice then received either daily IPI-926 (20 mg/kg) or vehicle treatment, and the growth of flank allografts was monitored over a nine-week period. […] Half of the allograft mice from drug-treated donors were taken off drug after five weeks of IPI-926 treatment, and the other half received continuous IPI-926 for the nine-week study period. Mice from both groups were monitored for the entire 9-week period.

[2] = mouse, in vivo
Method: IPI-926 drug levels in tumor and brain samples were determined as described previously (Olive et al., (2009) Science 324: 1457-1461). Briefly, samples were homogenized in 4 volumes of CAN:PBS buffer and homogenized using a Geno/Grinder from SPEX CertiPrep (Metuchen, N.J.) for 2 minutes. Homogenates were then filtered using […] low binding hydrophilic multiscreen solvinert late (Millipore) and collected in a 96-well plate. The tissue filtrates were diluted 1:1 and IPI-926 levels were determined. Sample analysis was performed on an Agilent 1200 from Agilent Technologies (Santa Clara, Calif.) coupled with an API-4000 mass spectrometer from Applied Biosystems (Foster City, Calif.) for detection. Data were acquired and processed using the software Analyst 1.4.1 (Applied Biosystems). Sample concentrations, as measured by their peak area ratios (analyte divided by internal standard), were determined from the calibration curves.

[3] = test system: KPC mice pancreatic tumors; settings: combination of IPI-926 and Gemcitabine; cited from earlier work
H1650 xenograft = experiment: H1650 mutant EGFR non-small cell lung cancer xenograft, post Gefitinib; format: in vivo
Method: The efficacy of IPI-926 was evaluated when applied as a maintenance therapy following treatment of a xenograft non-small cell lung cancer model with a tyrosine kinase inhibitor. […] Sonic hedgehog ligand is detected by immunohistochemical staining (IHC) of sections of non-small cell lung cancer (FIG. 8A).

T1 sequence (Q99835 28-787 D473H): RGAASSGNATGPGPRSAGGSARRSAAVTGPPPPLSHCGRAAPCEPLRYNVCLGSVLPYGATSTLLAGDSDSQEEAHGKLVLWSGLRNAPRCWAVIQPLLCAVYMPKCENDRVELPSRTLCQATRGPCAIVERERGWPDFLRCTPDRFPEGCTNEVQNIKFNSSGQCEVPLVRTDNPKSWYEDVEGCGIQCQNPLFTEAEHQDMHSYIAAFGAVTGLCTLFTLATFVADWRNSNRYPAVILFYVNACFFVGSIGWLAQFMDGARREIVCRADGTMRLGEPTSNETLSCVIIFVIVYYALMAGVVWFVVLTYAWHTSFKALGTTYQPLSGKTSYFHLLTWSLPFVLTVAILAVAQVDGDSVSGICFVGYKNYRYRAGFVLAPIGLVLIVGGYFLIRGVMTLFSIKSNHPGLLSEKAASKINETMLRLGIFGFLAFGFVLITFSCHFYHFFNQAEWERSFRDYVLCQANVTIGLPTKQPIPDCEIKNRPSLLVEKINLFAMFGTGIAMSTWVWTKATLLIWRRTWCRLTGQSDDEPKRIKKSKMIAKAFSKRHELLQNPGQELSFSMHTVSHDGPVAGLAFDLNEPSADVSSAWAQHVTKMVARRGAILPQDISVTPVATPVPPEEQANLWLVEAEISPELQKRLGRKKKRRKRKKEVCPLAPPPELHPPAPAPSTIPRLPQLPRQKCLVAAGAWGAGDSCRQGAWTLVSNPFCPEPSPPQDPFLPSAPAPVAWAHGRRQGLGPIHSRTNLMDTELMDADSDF

SMILES: CC1=C2C[C@H]3[C@@H](CC[C@@H]4C[C@H](NS(C)(=O)=O)CC[C@@]43C)[C@@H]2CC[C@@]2(C1)O[C@@H]1C[C@H](C)CN[C@H]1[C@H]2C [IPI-926]
- clinical activity (Phase 1 clinical trial): demonstrated clinical activity
- tolerability (Phase 1 clinical trial): well-tolerated
- IC50 (D473H SMO mutant): 244 nM
- tumor re-growth on continuous IPI-926 ([1]; allografts from drug-treated donors, continuous IPI-926 for nine weeks): no tumors re-grew
- tumors that re-grew after going off drug ([1]; allografts from drug-treated donors, off drug after five weeks, monitored 9 weeks): 1 of 6
- allograft tumors undetectable by caliper measurements ([1]; daily IP 20 mg/kg, both allograft groups (drug-naive and IPI-926 treated donors)): 100%
- flank tumor take in recipients (tumor initiating capacity) ([1]; donors treated daily 20 mg/kg for 6 weeks before transplantation, drug-naive donors 40 of the 110, P=0.017): 9 of 51
- tumors that progressed while on therapy ([1]; flank allografts from drug-naive donors, 9-week trial): Forty percent
- blood brain barrier penetration [2]: crossed the blood brain barrier
- intratumoral vascular density and gemcitabine concentration [3]: transient increase in intratumoral vascular density and intratumoral concentration of gemcitabine
- tumor volume after cessation of Gefitinib (H1650 xenograft; Gefitinib 40 mg/kg orally one week followed by IPI-926 once a day for three weeks): prolonged duration of the tumor inhibition
- mGLI-1 mRNA expression in lung tumor samples (H1650 xenograft; IPI-926 in combination with Gefitinib): inhibit mGLI-1 mRNA expression
